Laboratory results from paper PMC10739871, “Structural insights into the regulation, ligand recognition, and oligomerization of bacterial STING” (Nature Communications, 2023).
“And” between values parts separate entries of the source, which are not always exact repeats. Identical values can stand only once. Like-named read-outs stand apart in the source and are kept apart here.

Columns and labels:
RiSTING [1] = assay: Dynamic light scattering of RiSTING with or without cGG; set-up: species or system Riemerella anatipestifer; conditions: two molar excesses of cGG; 84% of particles; 9.0 nm without cGG
Method: The DLS experiments were performed using Zetasizer Nano ZS90 (Malvern instruments). Briefly, protein samples containing 1 mg/ml RiSTING in the presence or absence of 2-fold molar excess of cGG were prepared and degassed. Polydispersity index (PDI) and globule size were examined at 25 °C.

MyTIR-STING = assay: NAD+ cleavage activity assay, MyTIR-STING (control); assay type: biochemical; conditions: 1 μM cGG
Method: (§1) The NAD^+ cleavage activity of the N-terminal TIR domain of full-length TIR-STING proteins were accessed using the previously described protocol. Briefly, 100 μl reaction mixture containing ligand (cGG or cAA) at the indicated concentration and 500 μM ε-NAD (Product No. N2630, Sigma-Aldrich) in the assay buffer (20 mM HEPES pH 7.5, 100 mM KCl) was pre-incubated at room temperature. Tested TIR-STING protein (0.5–1 μM) was then added to start the reaction. The fluorescence signal was continuously monitored for 1 hour at an emission wavelength of 410 nm with excitation at 300 nm using Synergy H1 microplate reader (BioTek). The changes of relative fluorescence units at different time points were recorded.

RiSTING [2] = assay: ITC binding of cGG to RiSTING; set-up: species or system Riemerella anatipestifer
Method: (§2) ITC experiments were performed at 25 °C using nano-ITC (TA Instruments). Purified RiSTING and ElSTING were exchanged into assay buffer containing 20 mM Tris pH 8.0, 150 mM NaCl. 10 mM stock of cGG (Item No. 17144, Cayman Chemical) and cAA (Item No. 17753, Cayman Chemical) were prepared by dissolving in the same buffer. 20 injections of ligand (0.9-1.2 mM) were sequentially titrated to tested STING protein solution (30-100 μM) with a stirring speed of 300 rpm. Data were fit to “independent” model to derive ΔH, ΔS, and Kd values using NanoAnalyze v3.12.5 (TA Instruments).

ElTIR-STING [3] = assay: Gel filtration / SEC-MALS of ElTIR-STING with cAA; set-up: species or system Epilithonimonas lactis
Method: Purified protein samples for SEC-MALS analysis were diluted in buffer containing 50 mM Tris pH 8.0, 200 mM NaCl, 1 mM TCEP to a final concentration of 1 mg/ml. The protein sample was incubated with 0.11 mM cyclic di-nucleotide at 4 °C for 1 hour, followed by centrifugation at 4 °C, 18,000x g for 30 mins to remove precipitated proteins. The final protein sample was analyzed using GE AKTA UPC Purifier FPLC system coupled to a Wyatt Optilab T-rex refractive index detector and a Wyatt miniDAWN TREOS to obtain O.D.280, molar mass and refractive index (dRI).

ElTIR-STING [4] = assay: NAD+ cleavage activity assay, ElTIR-STING; assay type: biochemical, Epilithonimonas lactis; conditions: for ΔRFU after 10 mins (single replicates): 500 μM ε-NAD; for ΔRFU after 10 mins, Average: n = 3
Method: as §1

[5] = test system: T2 phage infection of E. coli cells overexpressing ElTIR-STING; assay type: cell-based, E. coli BL21(DE3) / phage T2; conditions: for OD600: replicates 1-3
[6] = test system: E. coli cells overexpressing ElTIR-STING; assay: E. coli toxicity assay (growth curves), ElTIR-STING with or without cAA; assay type: cell-based, E. coli BL21(DE3); conditions: for OD600: replicates 1-3
Method: To access the cytotoxicity of TIR-STING proteins and their variants, E. coli BL21(DE3) cells which produce endogenous cGG were used. The cells carrying expression plasmid pET21 or pET24 with indicated TIR-STING were first inoculated into 3-ml LB medium and incubated at 37 °C with shaking overnight. The overnight culture was then diluted by fresh LB medium to an optical density at 600 nm (O.D.600) of ~0.1-0.2, followed by addition of 0.5 mM IPTG and 30 mM nicotinamide to induce the overexpression of tested proteins. […] To access the anti-phage ability of full-length LrTIR-STING, E. coli BL21(DE3) cells containing empty vector, pET24_LrTIR-STING or pET24_LrTIR-STING lid-to-loop mutant was first cultivated at 37 °C overnight and then diluted with fresh medium to O.D.600 of 0.1-0.2, followed by 0.5 mM IPTG induction and infected with T2 phage at a multiplicity of infection (MOI) of 10 or 0.01. The E. coli BL21(DE3) cells without IPTG induction and T2 phage infection was served as control.

ElSTING = assay: ITC binding of cAA to ElSTING; set-up: species or system Epilithonimonas lactis; conditions: ITC (Supplementary Fig. 5)
Method: as §2

[7] = target: oligomerization mutant ElTIR-STING^D175R,S179R (Epilithonimonas lactis DSM 19921); assay: SEC; gel-filtration analysis of full-length ElTIR-STING in the absence of cAA
[8] = target: oligomerization mutant ElTIR-STING^D175R,S179R (Epilithonimonas lactis DSM 19921); assay: SEC; gel-filtration analysis of full-length ElTIR-STING in the presence of cAA at 2-fold molar excess

Nc1nc2c(ncn2[C@@H]2O[C@@H]3COP(=O)(O)O[C@H]4[C@@H](O)[C@H](n5cnc6c(=O)[nH]c(N)nc65)O[C@@H]4COP(=O)(O)O[C@H]3[C@H]2O)c(=O)[nH]1 [cGG, 3′3′-cyclic di-GMP]
major particle size of RiSTING (RiSTING [1]): 40.6 nm
ΔRFU after 10 mins, Average (MyTIR-STING; n = 3): 31574 RFU
ΔRFU after 10 mins (single replicates) (MyTIR-STING; positive control): 32209 RFU and 31707 RFU and 30806 RFU
binding affinity (in words) (RiSTING [2]): nanomolar affinity
Kd (RiSTING [2]; 25 °C, 20 mM Tris pH 8.0, 150 mM NaCl, read-out: dissociation constant (Kd)): 0.1 nM

Nc1ncnc2c1ncn2[C@@H]1O[C@@H]2COP(=O)(O)O[C@H]3[C@@H](O)[C@H](n4cnc5c(N)ncnc54)O[C@@H]3COP(=O)(O)O[C@H]2[C@H]1O [cAA, 3′3′-cyclic di-AMP]
molecular weight of cAA-induced ElTIR-STING oligomer (ElTIR-STING [3]; SEC-MALS, 0.11 mM cyclic di-nucleotide): 3937–7883 kDa
oligomeric state induced (in words) (ElTIR-STING [3]; gel filtration, 2-fold molar excess of cAA, dimeric without ligand): large oligomers
ΔRFU after 10 mins (single replicates) (ElTIR-STING [4]; 1 μM cAA): 3735 RFU and 3756 RFU and 9276 RFU
ΔRFU after 10 mins, Average (ElTIR-STING [4]; 1 μM cAA): 5589 RFU
ΔRFU after 10 mins (single replicates) (ElTIR-STING [4]; 10 μM cAA): 3586 RFU and 4211 RFU and 4642 RFU
ΔRFU after 10 mins, Average (ElTIR-STING [4]; 10 μM cAA): 4146 RFU
ΔRFU after 10 mins (single replicates) (ElTIR-STING [4]; 100 μM cAA): 4282 RFU and 3852 RFU and 4467 RFU
ΔRFU after 10 mins, Average (ElTIR-STING [4]; 100 μM cAA): 4200 RFU
activation of NAD+ cleavage activity (in words) (ElTIR-STING [4]; full-length ElTIR-STING, up to 100 μM cAA): could not activate
resistance to phage infection (in words) ([5]; 100 μM cAA in growth medium, T2 phage): did not confer resistance
OD600 ([5]; MOI = 0.01, time 30 min): 0.015 and 0.017 and 0.016
OD600 ([5]; MOI = 0.01, time 45 min): 0.021 and 0.024 and 0.023
OD600 ([5]; MOI = 0.01, time 60 min): 0.030 (2×) and 0.032
OD600 ([5]; MOI = 0.01, time 75 min): 0.036 (2×) and 0.038
OD600 ([5]; MOI = 0.01, time 90 min): 0.040 (2×) and 0.043
OD600 ([5]; MOI = 0.01, time 105 min): 0.042 and 0.045 and 0.041
OD600 ([5]; MOI = 0.01, time 120 min): 0.046 (2×) and 0.050
OD600 ([5]; MOI = 0.01, time 135 min): 0.050 and 0.053 and 0.049
OD600 ([5]; MOI = 0.01, time 150 min): 0.054 and 0.057 and 0.062
OD600 ([5]; MOI = 0.01, time 165 min): 0.058 and 0.060 and 0.056
OD600 ([5]; MOI = 0.01, time 180 min): 0.061 and 0.064 and 0.058
OD600 ([5]; MOI = 1, time 30 min): 0.017 and 0.015 and 0.011
OD600 ([5]; MOI = 1, time 45 min): 0.019 and 0.018 and 0.012
OD600 ([5]; MOI = 1, time 60 min): 0.021 and 0.019 and 0.014
OD600 ([5]; MOI = 1, time 75 min): 0.021 and 0.020 and 0.015
OD600 ([5]; MOI = 1, time 90 min): 0.023 and 0.021 and 0.016
OD600 ([5]; MOI = 1, time 105 min): 0.025 and 0.023 and 0.018
OD600 ([5]; MOI = 1, time 120 min): 0.027 and 0.025 and 0.019
OD600 ([5]; MOI = 1, time 135 min): 0.028 and 0.025 and 0.020
OD600 ([5]; MOI = 1, time 150 min): 0.029 and 0.027 and 0.021
OD600 ([5]; MOI = 1, time 165 min): 0.030 and 0.028 and 0.022
OD600 ([5]; MOI = 1, time 180 min): 0.030 and 0.029 and 0.022
OD600 ([5]; Uninfected, time 30 min): 0.025 and 0.017 (2×)
OD600 ([5]; Uninfected, time 45 min): 0.032 and 0.023 and 0.024
OD600 ([5]; Uninfected, time 60 min): 0.034 and 0.033 (2×)
OD600 ([5]; Uninfected, time 75 min): 0.049 and 0.047 and 0.046
OD600 ([5]; Uninfected, time 90 min): 0.067 and 0.064 and 0.063
OD600 ([5]; Uninfected, time 105 min): 0.091 and 0.087 (2×)
OD600 ([5]; Uninfected, time 120 min): 0.121 and 0.117 and 0.116
OD600 ([5]; Uninfected, time 135 min): 0.160 and 0.155 and 0.152
OD600 ([5]; Uninfected, time 150 min): 0.208 and 0.200 and 0.197
OD600 ([5]; Uninfected, time 165 min): 0.262 and 0.252 and 0.247
OD600 ([5]; Uninfected, time 180 min): 0.327 and 0.313 and 0.308
OD600 ([5]; Uninfected, time 195 min): 0.398
OD600 ([6]; time 0 min, 300 μM cAA (Fig. 4b legend)): 0.028 (2×) and 0.026
OD600 ([6]; time 20 min, 300 μM cAA): 0.036 and 0.037 and 0.034
OD600 ([6]; time 40 min, 300 μM cAA): 0.056 (2×) and 0.054
OD600 ([6]; time 60 min, 300 μM cAA): 0.083 (2×) and 0.079
OD600 ([6]; time 80 min, 300 μM cAA): 0.125 and 0.124 and 0.119
OD600 ([6]; time 100 min, 300 μM cAA): 0.186 and 0.183 and 0.175
OD600 ([6]; time 120 min, 300 μM cAA): 0.252 (2×) and 0.244
OD600 ([6]; time 140 min, 300 μM cAA): 0.33 and 0.331 and 0.326
OD600 ([6]; time 160 min, 300 μM cAA): 0.408 (2×) and 0.41
OD600 ([6]; time 180 min, 300 μM cAA): 0.503 and 0.497 and 0.506
OD600 ([6]; time 200 min, 300 μM cAA): 0.563 and 0.565 and 0.575
OD600 ([6]; time 220 min, 300 μM cAA): 0.612 and 0.615 and 0.627
OD600 ([6]; time 240 min, 300 μM cAA): 0.66 (2×) and 0.677
OD600 ([6]; time 260 min, 300 μM cAA): 0.7 and 0.704 and 0.715
OD600 ([6]; time 280 min, 300 μM cAA): 0.73 and 0.732 and 0.743
OD600 ([6]; time 300 min, 300 μM cAA): 0.765 and 0.764 and 0.784
OD600 ([6]; time 320 min, 300 μM cAA): 0.798 and 0.804 and 0.81
OD600 ([6]; time 340 min, 300 μM cAA): 0.822 and 0.831 and 0.839
OD600 ([6]; time 360 min, 300 μM cAA): 0.854 and 0.863 and 0.865
OD600 ([6]; time 380 min, 300 μM cAA): 0.875 and 0.886 and 0.885
OD600 ([6]; time 400 min, 300 μM cAA): 0.892 and 0.904 and 0.902
OD600 ([6]; time 420 min, 300 μM cAA): 0.901 and 0.917 and 0.912
OD600 ([6]; time 440 min, 300 μM cAA): 0.911 and 0.927 and 0.92
OD600 ([6]; time 460 min, 300 μM cAA): 0.919 and 0.935 and 0.929
OD600 ([6]; time 480 min, 300 μM cAA): 0.926 and 0.943 and 0.935
OD600 ([6]; time 500 min, 300 μM cAA): 0.933 and 0.952 and 0.942
effect on growth of E. coli expressing ElTIR-STING (in words) ([6]; with vs without addition of cAA and vs empty vector): no differences
binding affinity (in words) (ElSTING): micromolar affinity

oligomerization mutant ElTIR-STING^D175R,S179R (natural protein)
stoichiometry N [7]: 6 and 2
stoichiometry N [8]: 6 and 2
